Earlier results as cited in patent US7666392B2, “Click chemistry-derived cyclopeptide derivatives as imaging agents for integrins” (Siemens Medical Solutions USA, Inc., priority 2006, dated 2010).

For c(RGDyV), the “tumor uptake in vivo” value (125I-labeled) is listed as “receptor-specific tumor uptake in vivo” and the “tumor washout and excretion” value (in vivo) is listed as “rapid tumor washout and unfavorable hepatobiliary excretion”.
